The values below come from ChEMBL document CHEMBL1145231, “2-Alkoxydihydrocinnamates as PPAR agonists. Activity modulation by the incorporation of phenoxy substituents” (Bioorg Med Chem Lett, 2005).

One may read the IC50 as the concentration at which inhibition is half-maximal. In general, ED50 refers to the dose that gives a 50% effect, or the effect in half of the subjects. As usually defined, the EC50 is the concentration at which the effect is half-maximal. Lower therefore signals greater potency.

Assay [1] deals with T1, Peroxisome proliferator-activated receptor delta (Homo sapiens, UniProt Q03181).
T1 sequence (Q03181 whole entry): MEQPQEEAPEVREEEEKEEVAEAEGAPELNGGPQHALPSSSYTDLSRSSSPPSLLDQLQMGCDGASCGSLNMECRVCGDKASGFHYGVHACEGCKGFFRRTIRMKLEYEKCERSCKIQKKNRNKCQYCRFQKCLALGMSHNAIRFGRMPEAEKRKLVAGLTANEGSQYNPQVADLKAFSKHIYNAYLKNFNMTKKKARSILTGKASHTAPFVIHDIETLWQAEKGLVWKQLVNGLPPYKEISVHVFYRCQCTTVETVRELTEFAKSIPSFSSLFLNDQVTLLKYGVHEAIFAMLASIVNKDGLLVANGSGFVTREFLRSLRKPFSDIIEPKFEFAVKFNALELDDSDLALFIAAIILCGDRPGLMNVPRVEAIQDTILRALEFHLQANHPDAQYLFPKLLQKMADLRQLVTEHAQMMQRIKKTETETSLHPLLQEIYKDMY

The species named for a further assay is Rattus norvegicus. The assay is described as follows: animal or person. Format: functional.
Assay [2] addresses T2, Peroxisome proliferator-activated receptor alpha (Homo sapiens, UniProt Q07869).
T2 sequence (Q07869 whole entry): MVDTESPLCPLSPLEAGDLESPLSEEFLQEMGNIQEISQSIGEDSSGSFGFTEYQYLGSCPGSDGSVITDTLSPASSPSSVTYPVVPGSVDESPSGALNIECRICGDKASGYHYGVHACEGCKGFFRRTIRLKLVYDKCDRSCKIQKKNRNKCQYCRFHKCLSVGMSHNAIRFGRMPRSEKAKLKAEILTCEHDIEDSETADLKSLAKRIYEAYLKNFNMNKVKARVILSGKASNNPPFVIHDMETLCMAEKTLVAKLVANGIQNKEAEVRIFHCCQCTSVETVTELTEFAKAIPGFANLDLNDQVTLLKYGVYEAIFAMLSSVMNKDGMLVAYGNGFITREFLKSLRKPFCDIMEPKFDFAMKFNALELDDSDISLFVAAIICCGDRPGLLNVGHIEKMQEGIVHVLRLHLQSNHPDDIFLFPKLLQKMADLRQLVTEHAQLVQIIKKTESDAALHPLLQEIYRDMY

Assay [3] addresses T2, Peroxisome proliferator-activated receptor alpha. This is another data set of the same source.

Regarding `COc1cc(C[C@H](OC)C(=O)O)ccc1OCCCOc1ccc(Oc2ccccc2)cc1`, the IC50 in assay [1] was 7500 nM; in assay [2], 1350 nM. In the assay filed under Rattus norvegicus, this compound had an ED50 of 0.12 mg/kg. This compound also returned an EC50 in assay [3] of 2150 nM.

For `CO[C@@H](Cc1ccc(OCCCOc2ccc(C(=O)c3ccccc3)cc2)c(Cl)c1)C(=O)O`, the IC50 in assay [1] was found to be 1510 nM; in assay [2], 309 nM. Besides, in the assay filed under Rattus norvegicus, the ED50 amounted to 0.29 mg/kg. The compound further came in with an EC50 in assay [3] of 2710 nM.

On to `CO[C@@H](Cc1ccc(C#CCCOc2ccc(Oc3ccccc3)cc2)cc1)C(=O)O`, for which the half-inhibitory concentration (IC50) came out at 3940 nM in assay [1] and 1150 nM in assay [2]. Further, it took a dose of 0.08 mg/kg to reach the 50% effect level in the assay listed under Rattus norvegicus (ED50). In assay [3], this compound returned an EC50 of 1880 nM.

`CO[C@@H](Cc1ccc(C#CCCCOc2ccc(Oc3ccccc3)cc2)cc1)C(=O)O`: the results for the IC50 in assay [1] and in assay [2] were 4120 nM and 770 nM, respectively. The 50% effect level in the assay filed under Rattus norvegicus (ED50) was put at a dose of 0.07 mg/kg. For the same compound, in assay [3], the half-maximal effective concentration (EC50) turned out to be 2620 nM.

With `CO[C@@H](Cc1ccc(OCCCOc2ccc(-c3ccccc3)cc2)cc1)C(=O)O`, the results for the IC50 in assay [1] and in assay [2] were 1390 nM and 568 nM, respectively. The same compound came in with an ED50 in the assay listed under Rattus norvegicus of 1.5 mg/kg. Besides, the response in assay [3] was half-maximal at 1100 nM (EC50).

Take `CCO[C@@H](Cc1ccc(OCCCOc2ccc(Oc3ccccc3)cc2)cc1)C(=O)O`: the IC50 in assay [1] turned out to be 1570 nM; in assay [2] it was 1690 nM. Besides, the ED50 in the assay filed under Rattus norvegicus worked out at 0.015 mg/kg. The EC50 in assay [3] was determined as 2750 nM.

For `CO[C@@H](Cc1ccc(OCCCOc2ccc(C(=O)c3ccccc3)cc2)cc1)C(=O)O`, the values for the IC50 in assay [1] and in assay [2] were 2320 nM and 470 nM, respectively. In the assay listed under Rattus norvegicus, the ED50 came to 0.18 mg/kg. The same compound yielded an EC50 in assay [3] of 2870 nM.

On to `CC(C)(Oc1ccc(C(=O)c2ccc(Cl)cc2)cc1)C(=O)O` [FENOFIBRIC ACID], for which, in assay [2], the half-inhibitory concentration (IC50) is above 10000 nM. Also, the EC50 in assay [3] is above 10000 nM.

For the compound `CO[C@@H](Cc1ccc(OCCCOc2ccc(Oc3ccccc3)cc2)cc1)C(=O)O` [NAVEGLITAZAR], the results for the IC50 in assay [1] and in assay [2] were 1920 nM and 2710 nM, respectively. The 50% effect level in the assay listed under Rattus norvegicus (ED50) was put at a dose of 0.1 mg/kg. The concentration giving a half-maximal response (EC50) in assay [3] came to 2820 nM.
